Experimental data as given in ChEMBL document CHEMBL4257503, “N-Acetyl-3-aminopyrazoles block the non-canonical NF-kB cascade by selectively inhibiting NIK” (Medchemcomm, 2018).

Experiments:
[1] = molecular target: Mitogen-activated protein kinase kinase kinase kinase 2 (Homo sapiens, UniProt Q12851); test: Inhibition of MAP4K2 (unknown origin)
[2] = molecular target: Platelet-derived growth factor receptor alpha (Homo sapiens, UniProt P16234); test: Inhibition of wild-type PDGFR-alpha (unknown origin)
Chain of Platelet-derived growth factor receptor alpha (P16234 whole entry): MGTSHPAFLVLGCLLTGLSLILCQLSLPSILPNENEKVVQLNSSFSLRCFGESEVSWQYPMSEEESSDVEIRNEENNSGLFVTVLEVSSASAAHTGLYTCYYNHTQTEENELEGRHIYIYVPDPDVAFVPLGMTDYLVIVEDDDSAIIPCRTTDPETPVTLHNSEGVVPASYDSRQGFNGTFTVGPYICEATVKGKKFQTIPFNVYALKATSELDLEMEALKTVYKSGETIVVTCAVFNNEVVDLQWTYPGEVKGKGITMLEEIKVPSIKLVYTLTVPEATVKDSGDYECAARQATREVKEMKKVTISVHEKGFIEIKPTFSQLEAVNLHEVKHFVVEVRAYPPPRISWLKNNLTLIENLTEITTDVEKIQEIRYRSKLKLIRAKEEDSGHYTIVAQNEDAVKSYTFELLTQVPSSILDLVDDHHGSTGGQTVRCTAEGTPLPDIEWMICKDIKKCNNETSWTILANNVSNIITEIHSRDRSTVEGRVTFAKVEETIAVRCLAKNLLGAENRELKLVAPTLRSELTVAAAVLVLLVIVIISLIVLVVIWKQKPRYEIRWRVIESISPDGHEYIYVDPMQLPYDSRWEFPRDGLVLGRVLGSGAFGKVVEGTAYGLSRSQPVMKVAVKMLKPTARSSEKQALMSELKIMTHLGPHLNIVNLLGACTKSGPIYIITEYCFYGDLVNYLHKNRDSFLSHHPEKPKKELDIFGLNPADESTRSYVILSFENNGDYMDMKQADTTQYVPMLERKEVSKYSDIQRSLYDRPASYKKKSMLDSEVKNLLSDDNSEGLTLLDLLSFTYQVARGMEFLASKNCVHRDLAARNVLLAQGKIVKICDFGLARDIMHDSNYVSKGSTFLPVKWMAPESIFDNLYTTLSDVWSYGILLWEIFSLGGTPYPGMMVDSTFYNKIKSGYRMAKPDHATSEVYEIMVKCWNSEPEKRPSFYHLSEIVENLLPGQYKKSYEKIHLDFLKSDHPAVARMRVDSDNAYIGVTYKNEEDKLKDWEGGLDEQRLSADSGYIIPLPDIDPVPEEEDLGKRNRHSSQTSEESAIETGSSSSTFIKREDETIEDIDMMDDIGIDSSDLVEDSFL

[3] = molecular target: Mitogen-activated protein kinase kinase kinase 8 (Homo sapiens, UniProt P41279); test: Inhibition of COT (unknown origin)
Chain of Mitogen-activated protein kinase kinase kinase 8 (P41279 whole entry): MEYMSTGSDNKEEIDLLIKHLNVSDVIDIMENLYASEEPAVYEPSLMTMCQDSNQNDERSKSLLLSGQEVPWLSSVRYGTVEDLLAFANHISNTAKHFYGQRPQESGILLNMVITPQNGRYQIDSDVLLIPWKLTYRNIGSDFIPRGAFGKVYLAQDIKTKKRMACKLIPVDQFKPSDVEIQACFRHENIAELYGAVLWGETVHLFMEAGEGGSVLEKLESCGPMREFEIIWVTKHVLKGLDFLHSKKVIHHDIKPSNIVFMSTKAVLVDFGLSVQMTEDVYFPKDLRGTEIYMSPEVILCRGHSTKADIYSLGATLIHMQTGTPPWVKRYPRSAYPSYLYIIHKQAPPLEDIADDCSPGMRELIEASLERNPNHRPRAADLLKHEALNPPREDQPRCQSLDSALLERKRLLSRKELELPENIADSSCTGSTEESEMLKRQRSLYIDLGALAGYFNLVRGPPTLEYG

[4] = molecular target: Serine/threonine-protein kinase Chk2 (Homo sapiens, UniProt O96017); test: Inhibition of CHK2 (unknown origin)
Chain of Serine/threonine-protein kinase Chk2 (O96017 whole entry, the tested form may be a part): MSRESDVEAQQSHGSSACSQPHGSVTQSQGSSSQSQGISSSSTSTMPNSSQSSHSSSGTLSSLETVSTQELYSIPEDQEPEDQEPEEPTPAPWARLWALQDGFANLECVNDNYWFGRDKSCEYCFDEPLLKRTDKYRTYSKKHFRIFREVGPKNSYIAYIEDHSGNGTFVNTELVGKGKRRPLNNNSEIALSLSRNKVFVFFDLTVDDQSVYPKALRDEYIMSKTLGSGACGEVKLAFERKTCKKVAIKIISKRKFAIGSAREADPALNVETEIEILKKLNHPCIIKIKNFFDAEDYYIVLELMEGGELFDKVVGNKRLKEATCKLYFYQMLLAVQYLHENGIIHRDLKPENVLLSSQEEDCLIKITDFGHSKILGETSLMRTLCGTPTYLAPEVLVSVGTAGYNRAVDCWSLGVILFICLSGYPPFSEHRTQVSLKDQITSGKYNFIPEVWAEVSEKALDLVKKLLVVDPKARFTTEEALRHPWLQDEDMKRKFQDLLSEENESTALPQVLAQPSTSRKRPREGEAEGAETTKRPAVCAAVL

[5] = molecular target: Mitogen-activated protein kinase kinase kinase 14 (Homo sapiens, UniProt Q99558); test: Inhibition of recombinant human full-length N-terminal GST-fused/His6-tagged NIK (M1 to P947 residues) expressed in Sf9 insect cells using AKDVDQGSLCTSFVGTLQY peptide as substrate measured after 60 mins by ADP-Glo kinase assay
Chain of Mitogen-activated protein kinase kinase kinase 14 (Q99558 whole entry, the tested form may be a part): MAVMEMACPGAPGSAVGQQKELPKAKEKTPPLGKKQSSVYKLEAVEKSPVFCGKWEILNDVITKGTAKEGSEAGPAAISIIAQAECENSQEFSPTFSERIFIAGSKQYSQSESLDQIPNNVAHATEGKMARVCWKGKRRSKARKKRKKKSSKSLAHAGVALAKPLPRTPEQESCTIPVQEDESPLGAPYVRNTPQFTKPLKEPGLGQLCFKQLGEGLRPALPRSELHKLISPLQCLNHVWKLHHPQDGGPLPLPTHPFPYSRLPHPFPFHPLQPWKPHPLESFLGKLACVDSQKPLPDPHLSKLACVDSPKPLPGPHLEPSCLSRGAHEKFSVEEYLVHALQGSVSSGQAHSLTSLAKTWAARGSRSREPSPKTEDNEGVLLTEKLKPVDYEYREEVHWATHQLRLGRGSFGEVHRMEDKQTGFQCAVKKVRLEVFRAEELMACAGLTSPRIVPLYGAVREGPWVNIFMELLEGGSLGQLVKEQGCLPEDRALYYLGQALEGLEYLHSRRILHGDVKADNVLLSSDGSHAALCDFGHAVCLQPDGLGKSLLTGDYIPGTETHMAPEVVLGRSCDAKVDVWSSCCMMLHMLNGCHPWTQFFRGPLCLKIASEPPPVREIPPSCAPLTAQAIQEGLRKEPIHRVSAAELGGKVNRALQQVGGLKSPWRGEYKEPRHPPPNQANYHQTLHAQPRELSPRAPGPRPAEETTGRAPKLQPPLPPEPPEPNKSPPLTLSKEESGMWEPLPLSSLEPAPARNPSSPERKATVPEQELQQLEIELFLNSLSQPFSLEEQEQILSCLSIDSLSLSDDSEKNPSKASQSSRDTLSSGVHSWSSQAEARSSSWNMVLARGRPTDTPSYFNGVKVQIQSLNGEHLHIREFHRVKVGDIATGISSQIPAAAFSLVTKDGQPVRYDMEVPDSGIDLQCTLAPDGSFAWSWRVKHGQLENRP

[6] = molecular target: Receptor-type tyrosine-protein kinase FLT3 (Homo sapiens, UniProt P36888); test: Inhibition of wild-type FLT3 (unknown origin)
[7] = molecular target: Proto-oncogene tyrosine-protein kinase Src (Homo sapiens, UniProt P12931); test: Inhibition of GST/His-tagged SRC (unknown origin)
[8] = Stability in human liver microsomes at 1 uM in absence of NADPH cofactor; assay type: ADME, microsome
[9] = molecular target: Mitogen-activated protein kinase kinase kinase 11 (Homo sapiens, UniProt Q16584); test: Inhibition of MAP3K11 (unknown origin)
Chain of Mitogen-activated protein kinase kinase kinase 11 (Q16584 whole entry): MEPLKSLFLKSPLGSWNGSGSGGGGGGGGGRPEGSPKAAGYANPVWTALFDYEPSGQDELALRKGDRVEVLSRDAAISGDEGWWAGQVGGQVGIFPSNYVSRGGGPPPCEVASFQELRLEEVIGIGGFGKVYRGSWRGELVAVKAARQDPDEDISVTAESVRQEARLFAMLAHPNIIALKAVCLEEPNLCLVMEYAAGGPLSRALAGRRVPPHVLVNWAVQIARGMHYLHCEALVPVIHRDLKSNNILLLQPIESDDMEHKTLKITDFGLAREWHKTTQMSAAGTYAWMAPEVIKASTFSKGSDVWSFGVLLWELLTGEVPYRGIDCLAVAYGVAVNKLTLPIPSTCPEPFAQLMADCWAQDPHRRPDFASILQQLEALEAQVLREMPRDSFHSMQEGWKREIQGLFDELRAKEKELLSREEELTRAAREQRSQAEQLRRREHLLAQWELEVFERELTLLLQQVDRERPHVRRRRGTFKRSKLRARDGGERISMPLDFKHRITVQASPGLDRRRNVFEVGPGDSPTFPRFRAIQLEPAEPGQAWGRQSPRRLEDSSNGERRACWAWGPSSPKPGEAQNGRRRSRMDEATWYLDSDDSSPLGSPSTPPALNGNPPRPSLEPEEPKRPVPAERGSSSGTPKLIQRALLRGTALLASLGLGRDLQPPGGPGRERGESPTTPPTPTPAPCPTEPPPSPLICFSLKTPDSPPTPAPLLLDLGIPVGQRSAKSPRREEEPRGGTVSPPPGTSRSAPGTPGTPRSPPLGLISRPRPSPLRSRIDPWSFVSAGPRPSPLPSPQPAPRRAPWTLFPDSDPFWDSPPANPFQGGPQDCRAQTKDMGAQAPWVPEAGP

Chain of Mitogen-activated protein kinase kinase kinase kinase 2 (Q12851 whole entry): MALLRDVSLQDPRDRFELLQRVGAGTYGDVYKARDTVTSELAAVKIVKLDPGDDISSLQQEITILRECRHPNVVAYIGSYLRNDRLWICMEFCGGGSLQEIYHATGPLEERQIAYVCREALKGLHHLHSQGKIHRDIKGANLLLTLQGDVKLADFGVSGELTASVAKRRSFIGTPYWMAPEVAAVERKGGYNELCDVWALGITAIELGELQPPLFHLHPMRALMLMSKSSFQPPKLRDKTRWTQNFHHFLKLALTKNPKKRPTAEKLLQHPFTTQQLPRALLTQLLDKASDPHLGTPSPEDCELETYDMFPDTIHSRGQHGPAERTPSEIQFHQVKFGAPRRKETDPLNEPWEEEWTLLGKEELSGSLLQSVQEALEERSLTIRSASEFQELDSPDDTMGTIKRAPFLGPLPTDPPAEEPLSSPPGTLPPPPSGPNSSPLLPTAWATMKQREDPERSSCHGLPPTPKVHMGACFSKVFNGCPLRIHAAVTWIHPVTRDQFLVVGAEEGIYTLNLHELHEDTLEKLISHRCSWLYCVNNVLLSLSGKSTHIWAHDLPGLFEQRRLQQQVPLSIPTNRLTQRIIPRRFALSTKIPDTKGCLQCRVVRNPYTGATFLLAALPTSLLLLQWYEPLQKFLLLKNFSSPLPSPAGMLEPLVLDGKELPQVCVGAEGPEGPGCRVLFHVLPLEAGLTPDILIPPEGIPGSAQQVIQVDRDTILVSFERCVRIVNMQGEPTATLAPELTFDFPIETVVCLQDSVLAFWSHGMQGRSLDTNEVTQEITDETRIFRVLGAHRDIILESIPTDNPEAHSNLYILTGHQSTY

IC50 [1]: > 100 µM
IC50 [2]: > 100 µM
IC50 [3]: > 100 µM
IC50 [4]: > 100 µM
IC50 [5]: 8.4 µM
IC50 [6]: > 100 µM
IC50 [7]: > 100 µM
Stability [8]: Unstable
IC50 [9]: > 100 µM
Compound: CC(=O)n1nc(C)c(-c2ccc(Cl)c(Cl)c2)c1N
